Experimental data from ChEMBL document CHEMBL1201862, “PubChem BioAssay data set” (2004).
The source made the active and inactive calls.

Legend:
[1] = test system: HeLa; assay: viability loss in HeLa cells – cell-based, ATP luminescence, cherry-pick samples, cytotoxicity control, dose response (AID 687004); assay type: functional; details: Homo sapiens
[2] = biological target: T1, Corticotropin-releasing factor receptor 2/Corticotropin-releasing factor-binding protein (Homo sapiens, UniProt P24387+Q13324); assay: activators of CRF receptor 2 with binding protein – uHTS hits, confirmation (AID 602473); assay type: functional; details: read-out: EC50_Mean
T1 sequence (Q13324 whole entry): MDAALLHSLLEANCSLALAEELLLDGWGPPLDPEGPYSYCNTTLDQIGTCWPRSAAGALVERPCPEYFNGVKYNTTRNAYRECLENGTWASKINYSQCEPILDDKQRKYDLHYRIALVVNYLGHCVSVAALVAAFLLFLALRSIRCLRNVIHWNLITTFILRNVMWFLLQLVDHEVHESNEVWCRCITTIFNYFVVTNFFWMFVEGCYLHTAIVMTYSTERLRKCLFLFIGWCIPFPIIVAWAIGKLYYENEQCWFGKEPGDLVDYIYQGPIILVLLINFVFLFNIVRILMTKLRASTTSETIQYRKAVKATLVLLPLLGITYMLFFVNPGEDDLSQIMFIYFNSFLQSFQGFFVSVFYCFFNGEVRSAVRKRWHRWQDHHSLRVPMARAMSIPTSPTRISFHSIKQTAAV
T1 sequence (P24387 whole entry): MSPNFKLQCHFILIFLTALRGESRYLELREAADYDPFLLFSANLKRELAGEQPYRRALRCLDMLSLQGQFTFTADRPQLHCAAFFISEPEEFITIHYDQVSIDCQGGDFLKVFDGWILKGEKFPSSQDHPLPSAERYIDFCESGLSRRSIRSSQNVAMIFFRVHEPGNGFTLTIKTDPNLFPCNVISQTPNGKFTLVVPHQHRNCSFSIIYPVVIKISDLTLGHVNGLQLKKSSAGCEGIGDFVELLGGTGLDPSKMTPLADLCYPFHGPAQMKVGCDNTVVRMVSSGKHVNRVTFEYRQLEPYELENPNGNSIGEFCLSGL

[3] = biological target: T1, Corticotropin-releasing factor receptor 2/Corticotropin-releasing factor-binding protein; assay: Dose Response confirmation of uHTS hits for small molecule antagonists of the CRF-binding protein and CRF-R2 receptor complex.; assay type: functional; details: read-out: IC50_Mean
[4] = biological target: T2, Sentrin-specific protease 1 (Homo sapiens, UniProt Q9P0U3); assay: Dose response confirmation of small molecule inhibitors of the catalytic domain of the SUMO protease, SENP1 in a FRET assay.; assay type: functional; details: read-out: IC50_Mean
T2 sequence (Q9P0U3 whole entry): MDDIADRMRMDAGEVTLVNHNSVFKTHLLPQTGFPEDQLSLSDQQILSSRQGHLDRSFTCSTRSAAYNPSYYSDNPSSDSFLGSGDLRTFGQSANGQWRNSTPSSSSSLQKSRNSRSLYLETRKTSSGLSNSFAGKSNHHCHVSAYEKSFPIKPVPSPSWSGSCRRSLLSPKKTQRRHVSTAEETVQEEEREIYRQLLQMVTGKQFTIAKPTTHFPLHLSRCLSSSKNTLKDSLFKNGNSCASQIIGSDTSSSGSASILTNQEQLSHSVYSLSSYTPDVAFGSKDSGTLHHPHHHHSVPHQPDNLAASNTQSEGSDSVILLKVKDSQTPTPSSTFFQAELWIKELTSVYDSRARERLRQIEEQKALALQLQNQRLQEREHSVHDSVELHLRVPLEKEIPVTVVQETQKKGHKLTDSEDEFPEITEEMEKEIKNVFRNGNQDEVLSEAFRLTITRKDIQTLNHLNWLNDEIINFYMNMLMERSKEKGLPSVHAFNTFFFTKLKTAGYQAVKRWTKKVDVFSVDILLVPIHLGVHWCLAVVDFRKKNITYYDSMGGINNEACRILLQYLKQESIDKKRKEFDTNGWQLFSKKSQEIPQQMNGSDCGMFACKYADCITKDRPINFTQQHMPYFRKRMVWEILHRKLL

[5] = biological target: T2, Sentrin-specific protease 1; assay: SENP1 catalytic domain blockers, concentration series – biochemical, kinetic FRET, dose response (AID 651697); assay type: functional; details: read-out: IC50_Mean
[6] = Counterscreen for inhibitors of Trypanosoma brucei methionyl tRNA synthetase (MetRS): Luminescence-based cell-based high throughput dose response assay to identify compounds that are cytotoxic to Jurkat human T lymphocyte cells.; assay type: functional
[7] = nonselective StAR promoter luciferase inhibitors – cell-based, luminescence, luciferase reporter, counter-screen for LRH-1 inverse agonist project, dose response (AID 651969); assay type: functional
[8] = cells; assay type: functional
[9] = biological target: Nuclear receptor subfamily 5 group A member 2 (Homo sapiens, UniProt O00482); assay type: functional, cell-based;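 also: HEK293T cells transfected with LRH-1 and a StAR promoter luciferase reporter; potency for inhibitors that lower LRH-1 driven reporter light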
Chain of Nuclear receptor subfamily 5 group A member 2 (O00482 whole entry): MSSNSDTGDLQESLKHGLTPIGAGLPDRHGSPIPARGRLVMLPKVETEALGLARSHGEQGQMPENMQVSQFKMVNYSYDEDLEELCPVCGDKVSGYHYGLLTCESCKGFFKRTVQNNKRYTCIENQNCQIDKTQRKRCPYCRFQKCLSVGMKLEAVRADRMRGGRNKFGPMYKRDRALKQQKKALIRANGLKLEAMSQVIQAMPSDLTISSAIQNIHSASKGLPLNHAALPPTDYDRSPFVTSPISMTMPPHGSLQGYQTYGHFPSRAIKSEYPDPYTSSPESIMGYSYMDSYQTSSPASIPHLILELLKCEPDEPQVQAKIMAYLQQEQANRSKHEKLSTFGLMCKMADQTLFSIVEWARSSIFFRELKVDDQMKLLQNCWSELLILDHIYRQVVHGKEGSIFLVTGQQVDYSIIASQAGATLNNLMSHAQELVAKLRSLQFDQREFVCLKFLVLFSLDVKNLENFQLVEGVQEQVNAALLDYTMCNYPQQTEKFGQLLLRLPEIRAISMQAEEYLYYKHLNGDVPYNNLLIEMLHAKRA

[10] = biological target: Steroidogenic factor 1 (Homo sapiens, UniProt Q13285); assay: Counterscreen for inverse agonists of the liver receptor homolog-1 (LRH-1; NR5A2): Luminescence-based cell-based high throughput dose response assay to identify inverse agonists of the Steroidogenic Factor 1 Nuclear Receptor (SF1; NR5A1).; assay type: functional
Chain of Steroidogenic factor 1 (Q13285 whole entry): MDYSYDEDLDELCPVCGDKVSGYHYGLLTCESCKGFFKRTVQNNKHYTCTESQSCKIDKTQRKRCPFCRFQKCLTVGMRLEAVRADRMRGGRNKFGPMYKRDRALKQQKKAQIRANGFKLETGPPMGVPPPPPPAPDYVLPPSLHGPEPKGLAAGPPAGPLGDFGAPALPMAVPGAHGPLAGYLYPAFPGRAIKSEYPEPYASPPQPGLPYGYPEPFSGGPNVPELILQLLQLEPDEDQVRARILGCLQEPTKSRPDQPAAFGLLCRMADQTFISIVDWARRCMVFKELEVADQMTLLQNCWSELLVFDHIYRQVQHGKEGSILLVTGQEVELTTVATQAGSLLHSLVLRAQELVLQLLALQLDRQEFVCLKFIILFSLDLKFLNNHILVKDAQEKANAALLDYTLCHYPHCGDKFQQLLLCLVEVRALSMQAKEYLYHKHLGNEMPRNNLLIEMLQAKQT

[11] = biological target: Fructose-bisphosphate aldolase (Mycobacterium tuberculosis, UniProt P9WQA3); assay: Fluorescence-based biochemical high throughput dose response assay for inhibitors of the fructose-bisphosphate aldolase (FBA) of M. tuberculosis.; assay type: functional
Chain of Fructose-bisphosphate aldolase (P9WQA3 whole entry): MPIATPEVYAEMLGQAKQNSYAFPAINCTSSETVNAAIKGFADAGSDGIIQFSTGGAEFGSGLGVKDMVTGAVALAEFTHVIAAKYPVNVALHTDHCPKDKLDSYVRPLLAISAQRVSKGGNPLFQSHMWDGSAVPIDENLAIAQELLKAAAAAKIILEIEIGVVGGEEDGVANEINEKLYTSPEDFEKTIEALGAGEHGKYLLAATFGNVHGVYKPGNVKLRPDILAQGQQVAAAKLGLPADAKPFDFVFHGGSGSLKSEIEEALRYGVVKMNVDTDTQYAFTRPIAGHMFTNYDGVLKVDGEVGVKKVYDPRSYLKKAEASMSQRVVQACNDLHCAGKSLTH

[12] = biological target: T3, Probable nicotinate-nucleotide adenylyltransferase (Staphylococcus aureus (strain N315), UniProt P65502); assay type: functional, Staphylococcus aureus subsp. aureus N315;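 as to IC50 Mean: confirmatory dose-response retesting of NadD inhibitor hits first found in an ultra-high-throughput screen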
T3 sequence (P65502 whole entry): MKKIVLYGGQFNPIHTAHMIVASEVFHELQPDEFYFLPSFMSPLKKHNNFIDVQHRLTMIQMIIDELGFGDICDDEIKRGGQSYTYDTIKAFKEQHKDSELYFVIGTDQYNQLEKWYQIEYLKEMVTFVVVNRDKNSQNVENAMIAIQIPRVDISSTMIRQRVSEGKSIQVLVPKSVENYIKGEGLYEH

[13] = biological target: T3, Probable nicotinate-nucleotide adenylyltransferase; assay type: functional, Staphylococcus aureus subsp. aureus N315; details: read-out: IC50_Mean
[14] = biological target: T4, Disintegrin and metalloproteinase domain-containing protein 17 (Homo sapiens, UniProt P78536); assay: exosite inhibitors of ADAM17, dose response, biochemical (AID 743260)
T4 sequence (P78536 whole entry, the tested form may be a part): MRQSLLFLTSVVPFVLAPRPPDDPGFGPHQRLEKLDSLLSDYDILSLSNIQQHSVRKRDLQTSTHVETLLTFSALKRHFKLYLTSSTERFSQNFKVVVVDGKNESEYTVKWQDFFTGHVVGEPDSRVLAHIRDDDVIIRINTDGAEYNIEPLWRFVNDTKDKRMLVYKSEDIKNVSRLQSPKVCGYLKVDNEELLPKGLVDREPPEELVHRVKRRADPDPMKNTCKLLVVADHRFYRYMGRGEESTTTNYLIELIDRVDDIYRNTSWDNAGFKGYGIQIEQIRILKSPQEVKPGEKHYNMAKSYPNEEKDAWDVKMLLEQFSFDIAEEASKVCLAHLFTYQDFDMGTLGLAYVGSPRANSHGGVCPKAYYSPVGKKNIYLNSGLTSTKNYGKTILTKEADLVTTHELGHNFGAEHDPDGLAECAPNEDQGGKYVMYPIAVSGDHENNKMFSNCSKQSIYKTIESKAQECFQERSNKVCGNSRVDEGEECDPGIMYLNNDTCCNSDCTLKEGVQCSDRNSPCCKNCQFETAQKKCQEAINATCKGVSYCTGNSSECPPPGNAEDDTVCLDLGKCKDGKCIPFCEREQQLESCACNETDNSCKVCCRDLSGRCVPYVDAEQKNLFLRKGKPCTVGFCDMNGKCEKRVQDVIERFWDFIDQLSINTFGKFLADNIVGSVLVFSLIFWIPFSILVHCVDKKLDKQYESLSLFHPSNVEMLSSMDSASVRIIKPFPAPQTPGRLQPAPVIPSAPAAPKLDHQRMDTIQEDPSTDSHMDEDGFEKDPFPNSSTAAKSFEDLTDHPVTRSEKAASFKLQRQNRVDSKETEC

[15] = biological target: T4, Disintegrin and metalloproteinase domain-containing protein 17; assay: inhibition of ADAM17 substrate cleavage – biochemical, quenched FRET substrate, counter-screen for ADAM10 exosite inhibitor project, dose response (AID 743253)
[16] = biological target: DNA damage-inducible transcript 3 protein (Mus musculus, UniProt P35639); assay type: functional, Cricetulus griseus
Chain of DNA damage-inducible transcript 3 protein (P35639 whole entry): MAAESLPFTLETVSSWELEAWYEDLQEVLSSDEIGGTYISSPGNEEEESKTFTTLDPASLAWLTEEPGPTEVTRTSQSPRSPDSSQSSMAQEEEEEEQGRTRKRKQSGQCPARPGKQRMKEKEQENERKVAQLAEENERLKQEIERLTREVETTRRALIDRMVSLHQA

[17] = potency of ADAM10 substrate cleavage blockers – biochemical, QFRET, dose response (AID 743254);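 also: ADAM10 enzyme with the DM2 quenched FRET peptide as substrate; EDANS fluorescence gain as the protease cuts the substrate; inhibitor potency against ADAM10 proteolytic activity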
[18] = inhibition of ADAM10 peptide cleavage – biochemical, FRET peptide substrate, recombinant human ADAM10, selectivity assay for ADAM17 exosite inhibitor project, dose response (AID 743259);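 also: ADAM10 enzyme cleaving a FRET peptide substrate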
[19] = biological target: T5, Latent membrane protein 1 (Human herpesvirus 4 (strain B95-8), UniProt P03230); assay: LMP1 TES1 pathway selectivity over dsRED control – imaging, HEK293T, dual-color eGFP/dsRED, cherry-picks, selectivity assay for LMP1 NF-kB inhibitor project, dose response (AID 588398); assay type: functional, cell-based
T5 sequence (P03230 whole entry): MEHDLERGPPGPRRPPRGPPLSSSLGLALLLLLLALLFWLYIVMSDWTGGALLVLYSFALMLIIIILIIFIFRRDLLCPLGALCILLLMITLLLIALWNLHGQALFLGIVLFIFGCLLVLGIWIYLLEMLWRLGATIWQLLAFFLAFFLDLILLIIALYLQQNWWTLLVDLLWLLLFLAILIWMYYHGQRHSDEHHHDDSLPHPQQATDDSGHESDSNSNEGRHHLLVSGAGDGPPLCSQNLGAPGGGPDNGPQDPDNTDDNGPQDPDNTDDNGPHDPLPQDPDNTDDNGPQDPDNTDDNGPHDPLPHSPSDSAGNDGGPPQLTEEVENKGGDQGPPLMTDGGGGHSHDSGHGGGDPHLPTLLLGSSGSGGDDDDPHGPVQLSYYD

[20] = biological target: Albumin (Bos taurus, UniProt P02769); assay: Counterscreen for inhibitors of T-cell receptor (TCR)-CD3 interaction: Fluorescence-based biochemical high throughput dose response assay to identify inhibitors of T-cell receptor (TCR)-CD3 interaction using a TAMRA-labeled BSA probe.; assay type: functional
Chain of Albumin (P02769 whole entry): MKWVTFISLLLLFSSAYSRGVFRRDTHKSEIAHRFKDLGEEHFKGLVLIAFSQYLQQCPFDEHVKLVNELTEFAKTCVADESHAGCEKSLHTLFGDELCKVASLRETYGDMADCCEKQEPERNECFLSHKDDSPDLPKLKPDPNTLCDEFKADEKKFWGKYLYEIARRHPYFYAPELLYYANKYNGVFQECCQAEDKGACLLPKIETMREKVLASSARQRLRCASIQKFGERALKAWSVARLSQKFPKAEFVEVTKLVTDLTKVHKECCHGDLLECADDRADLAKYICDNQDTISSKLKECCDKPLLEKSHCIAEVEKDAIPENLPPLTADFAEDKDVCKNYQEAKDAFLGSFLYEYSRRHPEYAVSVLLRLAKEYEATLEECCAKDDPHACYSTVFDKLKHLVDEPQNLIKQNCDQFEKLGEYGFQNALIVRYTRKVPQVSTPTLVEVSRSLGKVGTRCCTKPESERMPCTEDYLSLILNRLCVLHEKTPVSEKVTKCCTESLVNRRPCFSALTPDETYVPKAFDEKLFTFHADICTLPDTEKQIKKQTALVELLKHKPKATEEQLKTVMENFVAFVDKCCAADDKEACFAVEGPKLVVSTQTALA

[21] = biological target: T6, Methionyl-tRNA synthetase, putative (Trypanosoma brucei brucei, UniProt Q38C91); assay type: functional, Trypanosoma brucei brucei strain 927/4 GUTat10.1;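 also: Read-out by fluorescence polarization, run as a confirmatory high-throughput counterscreen; potency of MetRS inhibitors measured by reduced AMP formation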
T6 sequence (Q38C91 whole entry): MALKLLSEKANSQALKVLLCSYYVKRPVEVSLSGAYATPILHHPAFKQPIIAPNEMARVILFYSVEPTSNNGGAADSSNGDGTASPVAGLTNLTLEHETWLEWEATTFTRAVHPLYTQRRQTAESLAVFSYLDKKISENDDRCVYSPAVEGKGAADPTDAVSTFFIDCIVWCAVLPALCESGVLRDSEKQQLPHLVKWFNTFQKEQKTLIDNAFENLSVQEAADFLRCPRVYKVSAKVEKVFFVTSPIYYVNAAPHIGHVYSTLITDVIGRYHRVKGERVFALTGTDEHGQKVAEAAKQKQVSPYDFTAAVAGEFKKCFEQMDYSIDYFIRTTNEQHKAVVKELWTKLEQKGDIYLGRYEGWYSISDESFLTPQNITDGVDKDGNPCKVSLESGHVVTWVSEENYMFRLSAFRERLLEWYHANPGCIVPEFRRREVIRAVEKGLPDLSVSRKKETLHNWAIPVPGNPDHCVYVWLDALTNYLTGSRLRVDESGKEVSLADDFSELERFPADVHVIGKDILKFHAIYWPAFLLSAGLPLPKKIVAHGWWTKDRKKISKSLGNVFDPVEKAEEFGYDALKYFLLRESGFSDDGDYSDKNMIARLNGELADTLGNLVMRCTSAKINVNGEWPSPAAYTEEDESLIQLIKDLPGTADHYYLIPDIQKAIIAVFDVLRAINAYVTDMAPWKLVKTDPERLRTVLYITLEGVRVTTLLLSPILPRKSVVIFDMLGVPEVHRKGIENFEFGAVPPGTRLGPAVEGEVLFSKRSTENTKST

[22] = viability loss in HeLa cells – cytotoxicity control for MgcRacGAP inhibitor project, dose response (AID 624300); assay type: functional
[23] = blockers of HIV-1 envelope-mediated cell-cell fusion – cherry-pick, dose response (AID 652057); assay type: functional, cell-based
[24] = HIV-1 AD8 envelope cell-cell fusion blockers – cherry-pick, dose response (AID 652062); assay type: functional, cell-based;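 also: luciferase signal from cell-cell fusion driven by HIV-1 clade B AD8 Env; potency is for inhibitors of fusion seen as a drop in luminescence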
[25] = blockers of HIV-1 ZM109 envelope-driven cell-cell fusion – HeLa effector, CEM target cells, luciferase, cherry-pick, dose response (AID 652058); assay type: functional, cell-based;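 also: luciferase signal from HIV-1 Env mediated cell-cell fusion of effector and target cells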
[26] = viability loss in CEM21 cells – cell-based, CellTiter-Glo luminescence, cherry-picked, cytotoxicity control for viral fusion inhibitor project, dose response (AID 652042); assay type: functional;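 also: potency for signal decrease meaning cytotoxicity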
[27] = off-target signal loss in HeLa-CEM21 co-culture – HeLa F-luc CTL cells, cherry-picked, counter-screen for HIV-1 Env fusion inhibitor project, dose response (AID 652040); assay type: functional, cell-based;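 also: potency for signal decrease marking cytotoxic or nonspecific inhibition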

## COC(=O)C1=C(C)N(Cc2ccccc2)C(=S)N[C@H]1c1cccc(F)c1
[1]
  AC50: > 52 µM (inactive)
[2]
  EC50: > 53 µM (inactive)
[3]
  IC50: > 47.1 µM (inactive)

## CC1=C(C(N)=O)S(=O)(=O)c2ccccc21
[4]
  IC50: 23 µM (inactive)
[5]
  IC50: 19.6 µM (active)

## O=C(CSc1nc2cc(Cl)ccc2[nH]1)c1c[nH]c2ccccc12
[6]
  IC50: 83.3 µM (inactive)

## Cc1ccc(NC(=O)COC(=O)C(NS(=O)(=O)c2ccc(Cl)cc2)C(C)O)cc1C (configuration not stated)
[7]
  IC50: 35.9 µM (inactive)
[8]
  IC50: 6.57 µM (active)
[9]
  IC50: 12 µM (inactive)
[10]
  IC50: 2.17 µM (active)

## COc1ccc(/C=N/N2C(=O)CSC2=S)cc1Br
[4]
  IC50: 9.69 µM (active)
[5]
  IC50: 19.3 µM (active)

## CCCC(C(=O)Nc1ccc2c(C)cc(=O)oc2c1)c1ccccc1 (configuration not stated)
[11]
  IC50: 1.23 µM (active)

## COc1ccccc1NC(=O)c1c(Nc2ccccc2C)sc(C(=O)Nc2cccc(Cl)c2)c1N
[12]
  IC50: 26 µM (active)
[13]
  IC50: 80 µM (inactive)
[14]
  IC50: > 69.5 µM (inactive)
[15]
  IC50: > 69.5 µM (inactive)
[16]
  Absolute IC50 (CHOP): 10 µM
[17]
  IC50: > 7.73 µM (active)
[18]
  IC50: > 69.5 µM (inactive)
[19]
  AC50: 21.3 µM (active)

## O=C(NNC(=S)NC(=O)c1cccc([N+](=O)[O-])c1)c1ccc(O)cc1
[20]
  IC50: > 94 µM (inactive)

## COc1cc(C(O)c2nc(-c3ccc4ccccc4c3)cs2)ccc1F (configuration not stated)
[15]
  IC50: > 69.5 µM (inactive)
[17]
  IC50: 10.4 µM (inactive)

## O=C(CSc1nc2ccc(Cl)cc2[nH]1)c1c[nH]c2ccccc12
[21]
  IC50: 39.5 µM (inactive)

## N#CC1=C(C2CC2)CC(c2ccccc2)C(C#N)=C1N (configuration not stated)
[11]
  IC50: > 10 µM (inactive)

## CCc1ccc(CNCCc2c[nH]c3ccccc23)cc1
[22]
  CC50: 100 µM (active)
[23]
  AC50: 4.4 µM (active)
[24]
  AC50: 12.2 µM (active)
[25]
  AC50: 4.01 µM (active)
[26]
  AC50: 31.7 µM (active)
[27]
  AC50: 6.36 µM (active)
